Measured values taken from article PMC12531871, “Indole-2-carboxamides Optimization for Antiplasmodial Activity” (ACS Bio & Med Chem Au, 2025).
≈ marks a conversion by molar mass, not a printed value. Where “and” joins values, the source holds several entries; their conditions need not be identical. Identical values can stand only once. Entries after “also recorded” stand apart in the source; their conditions may differ. Like-named read-outs stand apart in the source and are kept apart here.

Columns and labels:
[1] = test system: P. falciparum 3D7 strain (Pf3D7); assay: Antiplasmodial activity against P. falciparum 3D7 blood-stage parasites (SYBR Green, 72 h); type: cell-based, Plasmodium falciparum
P. falciparum K1 strain = assay: Antiplasmodial activity against resistant P. falciparum K1; type: cell-based; settings: Plasmodium falciparum, 3D7 / K1; resistant K1, in parallel with 3D7; read-out: IC50^K1 ± SD
P. falciparum Dd2 strain = assay: Antiplasmodial activity against resistant P. falciparum Dd2; type: cell-based; settings: Plasmodium falciparum, 3D7 / DD2; resistant Dd2, in parallel with 3D7; read-out: IC50^Dd2 ± SD
[2] = eLogD at pH 7.4, miniaturized shake flask method; type: physicochemical; settings: for logD at 2 h: 1-octanol/PBS (1:1, v/v), pH 7.4, pH 7.4, miniaturized shake flask method
Procedure: eLogD at pH 7.4 was determined using a miniaturized shake flask method. A solution of a presaturated mixture of 1-octanol and phosphate-buffered saline (PBS) (1:1, v/v) and the test compound (75 μM) was incubated at 25 °C with constant shaking (850 rpm) for 2h. After incubation, the organic and aqueous phases were separated, and samples of each phase were transferred to a plate for dilution. […] The samples were quantitated using LC-MS/MS. The experiment was carried out in duplicate. Propranolol, Amitriptyline, and Midazolam were used as reference standards.

[3] = Kinetic solubility at pH 7.4; type: physicochemical; settings: phosphate-buffered saline, 25 °C, pH 7.4, aqueous buffer, kinetic from dmso stock; read-out: Kinetic solubility (Sol)
Procedure: Kinetic solubility assay was performed using UV–vis detection. […] The samples were filtered using a multiscreen solubility filter plate. The filtrate was diluted by 50% with MeCN. A five-point linearity curve was prepared in PBS/MeCN (1:1, v/v) at 200, 150, 75, 25, and 2.5 μM. Blank, linearity, and test samples (n = 2) were transferred to a UV-readable plate, and the plate was scanned for absorbance. Best-fit calibration curves were constructed using the calibration standards and used to determine the test sample solubility. The experiment was carried out in duplicate. Diethylstilbestrol, Haloperidol, and Diclofenac Sodium were used as reference standards.

Rat hepatocyte stability = type: in vitro ADME; settings: for R Heps (Clint): rat hepatocyte stability
Procedure: The reaction was terminated with the addition of ice-cold MeCN at designated time points. The samples were then centrifuged (4200 rpm) for 20 min at 20 °C, and the supernatant was half diluted in water and then analyzed using LCMS/MS. The % parent compound remaining, half-life (t 1/2), and clearance (CLint) were calculated using standard methodology. The experiment was carried out in duplicate. Diltiazem, 7-Ethoxy Coumarin, Propranolol, and Midazolam were used as reference standards.

[4] = Human liver microsome stability; type: in vitro ADME; settings: human microsomal intrinsic clearance; for microsomal CLint at 1 μM: human, pooled human liver microsomes, read-out: hMics, human microsome Clint
Procedure: A solution of the test compounds in phosphate buffer solution (1 μM) was incubated in pooled human or mouse liver microsomes (0.5 mg/mL) for 0, 5, 20, 30, 45, and 60 min at 37 °C in the presence and absence of an NADPH regeneration system (NRS). The tests were conducted by […], India. The reaction was terminated with the addition of ice-cold acetonitrile, containing a […] standard, at designated time points. The sample was centrifuged (4200g) for 20 min at 20 °C and the supernatant was diluted by half in water and then analyzed by LC-MS/MS. The % parent compound remaining, half-life (t 1/2) and clearance (CLint) were calculated using standard methodology. The experiment was carried out in duplicate. Verapamil, diltiazem, phenacetin, and imipramine were used as reference standards.

[5] = Resazurin assay for cytotoxicity in HepG2 cells; type: cell-based, human; settings: human, HepG2 cells; HepG2 cell line, 72 h, resazurin
Procedure: (§1) HepG2 cells were trypsinized, counted, and distributed in a 96-well plate at a density of 30,000 cells per well (180 μL). The plate was incubated at 37 °C and 5% CO2 for 24 h. Following incubation, 20 μL of serial dilutions of the tested compounds were added to the wells, with concentrations ranging from 30 to 0.47 μM. The plate was incubated for an additional 72 h at 37 °C and 5% CO2. Untreated cells served as positive controls, while wells containing only medium were used as negative controls. Postincubation, microscopy was employed to determine the highest compound concentration for treatment results. […] Concentration–response curves were generated, and half-maximal inhibitory concentration (CC50) values were determined using nonlinear regression analysis.

[6] = test system: P. falciparum NF54 strain; assay: Antiplasmodial activity against P. falciparum NF54 (SYBR Green, 72 h); type: cell-based, Plasmodium falciparum; settings: read-out: NF54-IC50
HepG2 cells = assay: Resazurin assay for cytotoxicity in HepG2 cells; type: cell-based, human; settings: Homo sapiens, HepG2
Procedure: as §1

P. falciparum = assay: Parasite reduction ratio (PRR) assay, in vitro rate of kill; type: cell-based, Plasmodium falciparum
Text: This library was designed to maximize chemical diversity and novelty of compounds with physicochemical properties consistent with potential for further development.

[7] = test system: P. falciparum (3D7 strain) digestive vacuole; assay: Digestive vacuole homeostasis, acridine orange fluorescence; type: cell-based, Plasmodium falciparum; settings: 10 μM, 3 min treatment, isolated parasites
Procedure: The sample was incubated for 40 min at 37 °C. […] Fluorescence was measured in a Hitachi F-7000 fluorimeter (Tokyo, Japan) by continuous measurement of the fluorescence (λex = 488 nm; λem = 560 nm) at 37 °C. Experiments were performed in triplicate.

[8] = test system: P. falciparum 3D7 (chloroquine-sensitive); assay: Effect of verapamil on inhibitory activity in P. falciparum 3D7; type: cell-based; settings: Plasmodium falciparum
[9] = test system: P. falciparum Dd2 (chloroquine resistance); assay: Effect of verapamil on inhibitory activity in P. falciparum Dd2; type: cell-based; settings: Plasmodium falciparum
[10] = test system: P. vivax field isolates from Brazil; assay: Ex vivo drug susceptibility of P. vivax field isolates; type: cell-based; settings: Plasmodium vivax; for IC50: read-out: median IC50 (range), P. vivax (9); for EC50: read-out: median EC50 against P. vivax field isolates
[11] = test system: P. falciparum field isolates from Brazil; assay: Ex vivo drug susceptibility of P. falciparum field isolates; type: cell-based, Plasmodium falciparum; settings: Plasmodium falciparum; for IC50: read-out: median IC50 (range), P. falciparum (7); for EC50: read-out: median EC50 against P. falciparum isolates
P. falciparum 3D7 clone = assay: Ex vivo schizont maturation assay, 3D7 laboratory strain control; type: cell-based; settings: Plasmodium falciparum
[12] = test system: synchronized P. falciparum parasites (3D7 strain); assay: P. falciparum asexual blood stage-specificity assay (8 h exposures); type: cell-based, Plasmodium falciparum
[13] = Plasmodium falciparum, 3D7, 72 h, 3D7 strain, 72 h, SYBR Green, read-out: Pf3D7-IC50
[14] = Plasmodium falciparum, 3D7 / DD2, sensitive 3D7, in parallel with K1 and Dd2, read-out: IC50^3D7 ± SD
[15] = 3D7 strain, 72 h, SYBR Green, read-out: Pf3D7-IC50

IC50 [1, 13] [nM] | IC50 [1, 14] [nM] | IC50 (P. falciparum K1 strain) [nM] | IC50 (P. falciparum Dd2 strain) [nM] | logD at 2 h [2] | solubility kinetic at 2 h [3] [µM] | R Heps (Clint) (Rat hepatocyte stability) [μL/min/10^6] | microsomal CLint at 1 μM [4] [µL/min/mg] | Structure (SMILES) | CC50 at 72 h [5] [nM] | further results
> 10000 | – | – | – | -0.4 | > 1000 | 4 | 7 | COc1ccc2[nH]c(C(=O)N(Cc3cccnc3)CC3CCNC3)cc2c1 (stereo not drawn) [Compound 6d, 5-Methoxy-N-(3-pyridylmethyl)-N-(pyrrolidin-3-ylmethyl)-1H-indole-2-carboxamide] | – | effect on digestive vacuole H+ homeostasis (acridine orange fluorescence) [7]: strong interaction
~300 | 400 ± 300 | 5200 ± 200 | 4700 ± 800 | 1 | 196 | 2 | 3 | Cl.O=C(c1cc2cc(Cl)ccc2[nH]1)N(Cc1cccnc1)C1CCNCC1 [Compound 6x, 5-Chloro-N-(piperidin-4-yl)-N-(pyridin-3-ylmethyl)-1H-indole-2-carboxamide hydrochloride] | > 30000 | IC50 [1, 15]: 330 ± 80 nM; IC50 ([8]; 3D7, verapamil experiment, read-out: IC50 in 3D7 strain): ~150 nM; IC50 ([8]; read-out: IC50^3D7 (10 μM VP), 3D7, presence of 10 μM verapamil): 214 nM; IC50 ([8]; 3D7, absence of verapamil, read-out: IC50^3D7 (without VP)): 148 nM; IC50 ([9]; read-out: IC50^Dd2 (10 μM VP), Dd2, presence of 10 μM verapamil): 560 nM; IC50 ([9]; Dd2, absence of verapamil, read-out: IC50^Dd2 (without VP)): 2940 nM
220 ± 90 | 300 ± 100 | 2100 ± 200 | 1600 ± 300 | 1.4 | > 200 | 4 | 17 | O=C(c1cc2cc(C(F)(F)F)ccc2[nH]1)N(Cc1cccnc1)C1CCNCC1 [Compound 6y, N-(Piperidin-4-yl)-N-(pyridin-3-ylmethyl)-5-(trifluoromethyl)-1H-indole-2-carboxamide] | > 30000 | –

Further lines, the compound ahead of its results:

Structure (SMILES) | IC50 [1, 13] [nM] | IC50 [1, 14] [nM] | IC50 (P. falciparum K1 strain) [nM] | IC50 (P. falciparum Dd2 strain) [nM] | logD at 2 h [2] | solubility kinetic at 2 h [3] [µM] | R Heps (Clint) (Rat hepatocyte stability) [μL/min/10^6] | microsomal CLint at 1 μM [4] [µL/min/mg] | CC50 at 72 h [5] [nM] | further results
CN1CCC(N(Cc2cccnc2)C(=O)c2cc3cc(Cl)ccc3[nH]2)CC1 [Compound 5t, 5-Chloro-N-(1-methylpiperidin-4-yl)-N-(pyridin-3-ylmethyl)-1H-indole-2-carboxamide] | 370 ± 40 | 300 ± 100 | 500 ± 300 | 700 ± 200 | 2.3 | > 200 | 50 | 36 | > 30000 | –
O=C(c1cc2cc(Cl)ccc2[nH]1)N(Cc1cccnc1)CC1CCNC1 (stereo not drawn) [Compound 6a, 5-Chloro-N-(pyridin-3-ylmethyl)-N-(pyrrolidin-3-ylmethyl)-1H-indole-2-carboxamide] | 1390 | – | 6400 ± 100 | 9100 ± 100 | 0.62 | 193 (≈ 71.2 µg/mL) | 15 | 4.6 | > 30000 | IC50 [1, 15]: 1400 nM and 1000 nM; IC50 ([6]; NF54 strain): 800 ± 400 nM; IC50 ([6]; Plasmodium falciparum, NF54, NF54 strain): 840 nM; LogD ([2]; pH 7.4, miniaturized shake flask method): 0.6; hepatocyte CLint at 1 μM (Rat hepatocyte stability; pooled rat hepatocytes, rat hepatocyte intrinsic clearance, read-out: Rat hep Clint): 14.6 µL/min/1e6 cells; hMics, human microsome Clint [4]: 5 µL/min/mg; IC50 (HepG2 cells): > 20000 nM; Parasite Reduction Rate (PRR), rate of kill (P. falciparum): as fast as that of CQ; also recorded: Fast-acting inhibitor
C[C@H]1[C@H](OC(=O)CCC(=O)O)O[C@@H]2O[C@@]3(C)CC[C@H]4[C@H](C)CC[C@@H]1[C@@]24OO3 [artesunate] | – | – | – | – | – | – | – | – | – | IC50 ([10]; 9 clinical isolates, ex vivo): 1 nM; EC50 ([10]; ex vivo): 1 nM; IC50 ([11]; 7 clinical isolates, ex vivo): 0.6 nM; EC50 ([11]; ex vivo): 0.6 nM; IC50 (P. falciparum 3D7 clone; ex vivo assay conditions, 3D7 control, read-out: P. falciparum 3D7 IC50): 8 nM
CCN(CC)CCCC(C)Nc1ccnc2cc(Cl)ccc12 (stereo not drawn) [chloroquine, reference compound] | – | – | – | – | – | – | – | – | – | IC50 ([8]; 3D7, read-out: IC50^3D7 (without VP)): 39.8 nM; IC50 ([8]; 3D7, read-out: IC50 in 3D7 strain): 40 to 50 nM; IC50 ([9]; DD2, read-out: IC50^Dd2 (without VP)): 655 nM; EC50 [10]: 295 nM; IC50 [10]: 295 nM; EC50 [11]: 1200 nM; IC50 [11]: 1200 nM; IC50 (P. falciparum 3D7 clone; 3D7, read-out: P. falciparum 3D7 IC50): 12 nM; timing of peak activity (lowest IC50^8h) in asexual blood stages [12]: peak activity at ring and trophozoite stages
